# System: T-47D
# Assay: MTT anti-proliferative assay, T-47D
# Assay type: cell-based, human
# Conditions: Homo sapiens, T47D, 48 h, 48 h exposure, mean ± S.D. of 3 separate experiments
# Protocol: (§1) The cytotoxic effects of herein prepared pyrazole- thiazol-4-one hybrids 9a-p against BC MDA-MB-231 and T-47D cell lines, obtained from American Type Culture Collection (ATCC), were determined using the MTT assay protocol. It is worth to mention that the selected cancer cell lines in this study are EGFR-expressing cell lines[25]–[28]. Doxorubicin and Erolitinib were utilized as positive control (Table 1).
# (§2) All the biological assays conducted in this study were performed as reported earlier; MTT cytotoxicity[31],[32] cell cycle, Annexin V-FITC Apoptosis[34]–[36] and EGFR kinase[37] assays, (Supplementary Materials).
# (§3) 1. Anti-proliferative activity
# (§4) The two examined breast cancer cell lines (MDA-MB-231 and T-47D) as well as the normal breast MCF-10A cells have been obtained from American Type Culture Collection (ATCC). Cells lines were maintained as monolayers in Dulbecco’s Modified Eagle’s Medium (DMEM) supplemented with 10% FBS, 2 mM L-glutamine, 100 U/ml penicillin and 100µg/ml streptomycin sulfate. Cells were sub-cultured with trypsine /EDTA solution, counted with haemocytometer and plated onto 96-well plates (5000 cells/well) and left overnight to form a semi-confluent monolayer.
# (§5) Cell monolayers were treated in quadrates with vehicle (DMSO, 0.1% v/v), test samples (thiazolyl-pyrazolines 9a-p) or Doxorubicin as positive control for an exposure time of 48 h. At the end of exposure, MTT solution in PBS (5 mg/ml) was then added to all well including no cell blank and left to incubate for 90 min. The formation of formazan crystals were visually confirmed using phase contract microscopy. DMSO (100 µl/well) was added to dissolve the formazan crystals with shaking for 10 min after which the absorbance was read at 590 nm against no cell blanks on a FLuo Star Optima microplate reader (BMG technologies, Germany). Cell proliferation was calculated comparing the OD values of the DMSO control wells and those of the samples represented as % proliferation to the control. Dose-response experiment was performed on samples producing > or =50% loss of cell proliferation using five serial 2-fold dilutions (50, 25, 12.5, 6.25 and 3.125 µM) of the sample. IC50 values (concentration of sample causing 50% loss of cell proliferation of the vehicle control) were calculated using non-linear regression curve fitting of the dose response plots on GraphPad Prism V.6.0 software. […]
row,IC50 [µM],Structure (SMILES)
1,35.1 ± 2.04,O=C1N=C(N2N=C(c3cccc4ccccc34)CC2c2ccc(Cl)cc2)S/C1=C/c1ccc(O)cc1 (centres unmarked) [Compound 9j]
2,67.3 ± 2.51,COc1cccc(/C=C2/SC(N3N=C(c4cccc5ccccc45)CC3c3ccc(Cl)cc3)=NC2=O)c1O (centres unmarked) [Compound 9n]
3,2.73 ± 0.09,"COc1cccc2c1C(=O)c1c(O)c3c(c(O)c1C2=O)C[C@@](O)(C(=O)CO)C[C@@H]3O[C@H]1C[C@H](N)[C@H](O)[C@H](C)O1 [Doxorubicin, reference compound]"
4,8.45 ± 0.27,CN(C)c1ccc(/C=C2/SC(N3N=C(c4cccc5ccccc45)CC3c3ccc(F)cc3)=NC2=O)cc1 (centres unmarked) [Compound 9c]
5,27.6 ± 1.24,COc1ccc(/C=C2/SC(N3N=C(c4cccc5ccccc45)CC3c3ccc(Cl)cc3)=NC2=O)cc1 (centres unmarked) [Compound 9m]
6,18.6 ± 0.87,O=C1N=C(N2N=C(c3cccc4ccccc34)CC2c2ccc(F)cc2)S/C1=C/c1ccc(O)cc1 (centres unmarked) [Compound 9b]
7,27.1 ± 1.08,COc1cccc(/C=C2/SC(N3N=C(c4cccc5ccccc45)CC3c3ccc(F)cc3)=NC2=O)c1O (centres unmarked) [Compound 9f]
8,12.4 ± 0.33,COc1ccc(/C=C2/SC(N3N=C(c4cccc5ccccc45)CC3c3ccc(F)cc3)=NC2=O)cc1 (centres unmarked) [Compound 9e]

# Same assay, conditions: Homo sapiens, T47D, 48 h exposure, mean ± S.D. of 3 separate experiments
row,Structure (SMILES),IC50 [µM]
1,"C#Cc1cccc(Nc2ncnc3cc(OCCOC)c(OCCOC)cc23)c1 [Erlotinib, reference compound]",3.61 ± 0.24

# System: MDA-MB-231
# Assay: MTT anti-proliferative assay, MDA-MB-231
# Assay type: cell-based, human
# Conditions: 48 h exposure, mean ± S.D. of 3 separate experiments
# Protocol: as §1, §2, §3, §4, §5
row,IC50 [µM],Structure (SMILES)
1,6.24 ± 0.34,O=C1N=C(N2N=C(c3cccc4ccccc34)CC2c2ccc(Cl)cc2)S/C1=C/c1ccc(O)cc1 (centres unmarked) [Compound 9j]

# Same assay, conditions: Homo sapiens, MDA-MB-231, 48 h, 48 h exposure, mean ± S.D. of 3 separate experiments
row,IC50 [µM],Structure (SMILES)
1,< 10,O=C1N=C(N2N=C(c3cccc4ccccc34)CC2c2ccc(Cl)cc2)S/C1=C/c1ccc(O)cc1 (centres unmarked) [Compound 9j]
2,35.1 ± 1.92,COc1cccc(/C=C2/SC(N3N=C(c4cccc5ccccc45)CC3c3ccc(Cl)cc3)=NC2=O)c1O (centres unmarked) [Compound 9n]
3,3.67 ± 0.2,"COc1cccc2c1C(=O)c1c(O)c3c(c(O)c1C2=O)C[C@@](O)(C(=O)CO)C[C@@H]3O[C@H]1C[C@H](N)[C@H](O)[C@H](C)O1 [Doxorubicin, reference compound]"
4,18.9 ± 1.03,COc1ccc(/C=C2/SC(N3N=C(c4cccc5ccccc45)CC3c3ccc(Cl)cc3)=NC2=O)cc1 (centres unmarked) [Compound 9m]
5,12.2 ± 0.67,O=C1N=C(N2N=C(c3cccc4ccccc34)CC2c2ccc(F)cc2)S/C1=C/c1ccc(O)cc1 (centres unmarked) [Compound 9b]
6,14.1 ± 0.77,COc1ccc(/C=C2/SC(N3N=C(c4cccc5ccccc45)CC3c3ccc(F)cc3)=NC2=O)cc1 (centres unmarked) [Compound 9e]

# Same assay, conditions: Homo sapiens, MDA-MB-231, 48 h exposure, mean ± S.D. of 3 separate experiments
row,Structure (SMILES),IC50 [µM]
1,"C#Cc1cccc(Nc2ncnc3cc(OCCOC)c(OCCOC)cc23)c1 [Erlotinib, reference compound]",2.88 ± 0.17

# System: MCF-10A
# Assay: MTT cytotoxicity toward normal breast MCF-10A cells
# Assay type: cell-based
# Conditions: Homo sapiens, 48 h exposure, mean ± S.D. of 3 separate experiments
# Protocol: as §2, §3, §4, §5
row,Structure (SMILES),IC50 [µM]
1,O=C1N=C(N2N=C(c3cccc4ccccc34)CC2c2ccc(Cl)cc2)S/C1=C/c1ccc(O)cc1 (centres unmarked) [Compound 9j],65.4 ± 5.04
2,CN(C)c1ccc(/C=C2/SC(N3N=C(c4cccc5ccccc45)CC3c3ccc(F)cc3)=NC2=O)cc1 (centres unmarked) [Compound 9c],47 ± 3.52
3,COc1cccc(/C=C2/SC(N3N=C(c4cccc5ccccc45)CC3c3ccc(F)cc3)=NC2=O)c1O (centres unmarked) [Compound 9f],42.6 ± 2.81

# From publication PMC9329325, “Design, synthesis, in vitro biological assessment and molecular modeling insights for novel 3-(naphthalen-1-yl)-4,5-dihydropyrazoles as anticancer agents with potential EGFR inhibitory activity” (Scientific Reports, 2022)
